Measurements reported in patent US20240317708A1, “INHIBITORS OF TRANSGLUTAMINASES” (ZEDIRA GMBH, priority 2021, published 2024).

Legend:
[1] = Log D shake flask method (octanol / PBS pH 7.4, HPLC); type: physicochemical; settings: octanol/phosphate-buffered saline (PBS); octanol / PBS pH 7.4, shake flask
Protocol: In order to classify the inventive compounds according to their lipophilicity, Log D values (distribution coefficient) were determined by means of the well-established shake flask method, measuring the partition of a compound between an octanol and phosphate-buffered saline (PBS, pH 7.4) by HPLC.

[2] = Caco-2 permeability assay (CacoReady kit); type: in vitro ADME; settings: human
Protocol: Permeability coefficients (Papp values) were obtained from Caco-2 barrier studies predicting oral/intestinal bioavailability of the tested compounds. The assays were performed by using CacoReady™ ready-to-use kits from ReadyCell according to the manufacturers protocol.

[3] = molecular target: T1, recombinant human transglutaminase 2 (Homo sapiens, UniProt P21980); assay: Transglutaminase assay (dansylcadaverine incorporation into dimethylcasein, DCC-assay); type: biochemical; settings: recombinant human TG2 10 nM, dansylcadaverine/dimethylcasein, 37° C.
T1 construct: purchased Zedira T022
T1 sequence (P21980 1-687): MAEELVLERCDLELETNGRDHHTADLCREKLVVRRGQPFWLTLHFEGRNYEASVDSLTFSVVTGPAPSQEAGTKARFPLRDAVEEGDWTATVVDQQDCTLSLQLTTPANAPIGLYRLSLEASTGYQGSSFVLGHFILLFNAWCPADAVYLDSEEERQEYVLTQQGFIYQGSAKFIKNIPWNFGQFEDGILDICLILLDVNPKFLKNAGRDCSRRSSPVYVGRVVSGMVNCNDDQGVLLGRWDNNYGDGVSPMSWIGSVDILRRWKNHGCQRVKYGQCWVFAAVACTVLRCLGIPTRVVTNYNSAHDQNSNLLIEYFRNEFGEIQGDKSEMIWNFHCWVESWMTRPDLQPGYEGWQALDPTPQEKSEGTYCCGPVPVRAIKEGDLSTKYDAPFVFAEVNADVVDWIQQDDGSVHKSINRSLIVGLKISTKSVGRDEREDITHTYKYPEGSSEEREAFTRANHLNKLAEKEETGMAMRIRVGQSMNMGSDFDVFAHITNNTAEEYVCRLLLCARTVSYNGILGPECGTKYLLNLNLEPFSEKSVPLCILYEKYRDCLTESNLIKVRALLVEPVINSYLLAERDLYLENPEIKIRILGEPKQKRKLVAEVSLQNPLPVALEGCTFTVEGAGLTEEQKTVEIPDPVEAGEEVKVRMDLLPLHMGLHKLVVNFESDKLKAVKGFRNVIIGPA
Protocol: For the determination of potency of inhibitors against tissue transglutaminase, the incorporation of dansylcadaverine into dimethylcasein (Zedira product T036, Lorand et al., Anal Biochem, 1971, 44:221-31) was measured using recombinant human transglutaminase 2 (Zedira Product T022).
The tissue transglutaminase is diluted in buffer (50 mM Tris-HCl, 7.5 mM CaCl2, 150 mM NaCl, pH=7.4). The final concentration of TG2 in the assay is 10 nM.
A 10 mM inhibitor stock solution is prepared in DMSO, and from this a serial 1:2-fold dilution series is prepared also in DMSO. Each of the initial dilutions is subsequently diluted 1:50-fold with buffer (50 mM Tris-HCl, 7.5 mM CaCl2, 150 mM NaCl, pH=7.4) to yield the final working dilutions containing 2% (v/v) DMSO.
15 μl of inhibitor working dilution are added per well of a 96 well microtiter plate. As control, 15 μl of a 2% (v/v) DMSO solution prepared using the buffer mentioned above are added per well.
Immediately before starting the assay, 600 μl transglutaminase working solution are added to 11.4 ml assay buffer (50 mM Tris-HCl, 10 mM CaCl2, 10 mM glutathione, 2.5% glycerol, 16.7 μM dansylcadaverine, 4 μM N,N-dimethylcasein, 200 mM NaCl, pH=8.0). 285 μl of this reaction mix are added per well containing the inhibitor.
Increase in fluorescence is measured using λex=330 nm and λem=500 nm at 37° C. for 30 min. A slope of the increase in fluorescence between 20 and 30 min is calculated for determination of the IC50 value (inhibitor concentration at which 50% of the initial activity is blocked).
Analysis of enzymatic activity is performed by calculation of the slope of an increase in fluorescence intensity. IC50 values are calculated by plotting the enzymatic activity (as percentage from control containing 2% DMSO instead of inhibitor) against the inhibitor concentration. IC50 is defined as the inhibitor concentration blocking 50% of initial enzyme activity.

Compound | logD [1] | Papp [2] [×10⁻⁶ cm/s] | IC50 [3] [nM]
COC(=O)/C=C/CC[C@H](NC(=O)c1cc2cccc(F)c2s1)C(=O)Nc1cccn(CC(=O)NC2C3CC4CC(C3)CC2C4)c1=O (stereo partly drawn) [III-7, (S,E)-methyl 6-(7-fluorobenzo[b]thiophene-2-carboxamido)-7-(1-(2-(2-adamantylamino)-2-oxoethyl)-2-oxo-1,2-dihydropyridin-3-ylamino)-7-oxohept-2-enoate] | 3 to 5 | 1 to 10 | < 25
COC(=O)/C=C/CC[C@H](NC(=O)c1oc2ccccc2c1C)C(=O)Nc1cccn(CC(=O)NC2C3CC4CC2CC(O)(C4)C3)c1=O (stereo partly drawn) [III-38, (S,E)-methyl 7-(1-(2-(5-hydroxyadamantan-2-amino)-2-oxoethyl)-2-oxo-1,2-dihydropyridin-3-ylamino)-6-(3-methylbenzofuran-2-carboxamido)-7-oxohept-2-enoate] | 1 to 3 | < 1 | 25 to 250
COC(=O)/C=C/CC[C@H](NC(=O)c1cnnn1C)C(=O)Nc1cccn(CC(=O)N[C@@H]2C[C@@H]3CC[C@H]2C3)c1=O [III-116, (S,E)-methyl 7-(1-(2-((1S,2R,4R)-bicyclo[2.2.1]heptan-2-ylamino)-2-oxoethyl)-2-oxo-1,2-dihydropyridin-3-ylamino)-6-(1-methyl-1H-1,2,3-triazole-5-carboxamido)-7-oxohept-2-enoate] | < 1 | < 1 | < 25
COC(=O)/C=C/CC[C@H](NC(=O)c1cnsn1)C(=O)Nc1cccn(CC(=O)NC23CC(C2)C3)c1=O [III-173, (S,E)-methyl 7-(1-(2-(bicyclo[1.1.1]pentan-1-ylamino)-2-oxoethyl)-2-oxo-1,2-dihydropyridin-3-ylamino)-7-oxo-6-(1,2,5-thiadiazole-3-carboxamido)hept-2-enoate] | < 1 | < 1 | 25 to 250
COC(=O)/C=C/CC[C@H](NC(=O)c1sc(C(F)(F)F)nc1C)C(=O)Nc1cccn(CC(=O)N[C@@H]2C[C@H]3CC[C@@H]2C3)c1=O [III-98, (S,E)-methyl 7-(1-(2-((1R,2R,4S)-bicyclo[2.2.1]heptan-2-ylamino)-2-oxoethyl)-2-oxo-1,2-dihydropyridin-3-ylamino)-6-(4-methyl-2-(trifluoromethyl)thiazole-5-carboxamido)-7-oxohept-2-enoate] | 1 to 3 | 1 to 10 | < 25
COC(=O)/C=C/CC[C@H](NC(=O)c1oc2ccccc2c1C)C(=O)Nc1cccn(CC(=O)N[C@@H]2C[C@H]3CC[C@@H]2C3)c1=O [III-63, (S,E)-methyl 7-(1-(2-((1R,2R,4S)-bicyclo[2.2.1]heptan-2-ylamino)-2-oxoethyl)-2-oxo-1,2-dihydropyridin-3-ylamino)-6-(3-methylbenzofuran-2-carboxamido)-7-oxohept-2-enoate] | 3 to 5 | 1 to 10 | < 25
COC(=O)/C=C/CC[C@H](NC(=O)c1sc(C(F)(F)F)nc1C)C(=O)Nc1cccn(CC(=O)N[C@@H]2C[C@@H]3CC[C@H]2C3)c1=O [III-125, (S,E)-methyl 7-(1-(2-((1S,2R,4R)-bicyclo[2.2.1]heptan-2-ylamino)-2-oxoethyl)-2-oxo-1,2-dihydropyridin-3-ylamino)-6-(4-methyl-2-(trifluoromethyl)thiazole-5-carboxamido)-7-oxohept-2-enoate] | 1 to 3 | 1 to 10 | < 25
COC(=O)/C=C/CC[C@H](NC(=O)c1cc2cc(Br)ccc2s1)C(=O)Nc1cccn(CC(=O)NC2C3CC4CC(C3)CC2C4)c1=O (stereo partly drawn) [III-6, (S,E)-methyl 6-(5-bromobenzo[b]thiophene-2-carboxamido)-7-(1-(2-(2-adamantylamino)-2-oxoethyl)-2-oxo-1,2-dihydropyridin-3-ylamino)-7-oxohept-2-enoate] | 3 to 5 | 1 to 10 | < 25
COC(=O)/C=C/CC[C@H](NC(=O)c1oc2ccccc2c1C)C(=O)Nc1cccn(CC(=O)NC2C3CC4CC(C3)CC2C4)c1=O (stereo partly drawn) [III-2, (S,E)-methyl 7-(1-(2-(2-adamantylamino)-2-oxoethyl)-2-oxo-1,2-dihydropyridin-3-ylamino)-6-(3-methylbenzofuran-2-carboxamido)-7-oxohept-2-enoate] | 3 to 5 | 1 to 10 | < 25
COC(=O)/C=C/CC[C@H](NC(=O)c1oc2ccccc2c1C)C(=O)Nc1cccn(CC(=O)NC23CC4CC(CC(C4)C2)C3)c1=O [III-45, (S,E)-methyl 7-(1-(2-(1-adamantylamino)-2-oxoethyl)-2-oxo-1,2-dihydropyridin-3-ylamino)-6-(3-methylbenzofuran-2-carboxamido)-7-oxohept-2-enoate] | 3 to 5 | 1 to 10 | 25 to 250

Continued, values first:

logD [1] | Papp [2] [×10⁻⁶ cm/s] | IC50 [3] [nM] | Compound
3 to 5 | 1 to 10 | < 25 | COC(=O)/C=C/CC[C@H](NC(=O)c1sc(C(F)(F)F)nc1C)C(=O)Nc1cccn(CC(=O)NC23CC4CC(C)(CC(C)(C4)C2)C3)c1=O [III-123, (S,E)-methyl 7-(1-(2-(3,5-dimethyladamantane-1-amino)-2-oxoethyl)-2-oxo-1,2-dihydropyridin-3-ylamino)-6-(4-methyl-2-(trifluoromethyl)thiazole-5-carboxamido)-7-oxohept-2-enoate]
3 to 5 | 1 to 10 | < 25 | COC(=O)/C=C/CC[C@H](NC(=O)c1cc(Cl)c(Cl)s1)C(=O)Nc1cccn(CC(=O)NC2C3CC4CC(C3)CC2C4)c1=O (stereo partly drawn) [III-20, (S,E)-methyl 6-(4,5-dichlorothiophene-2-carboxamido)-7-(1-(2-(2-adamantylamino)-2-oxoethyl)-2-oxo-1,2-dihydropyridin-3-ylamino)-7-oxohept-2-enoate]
3 to 5 | < 1 | 250 to 1500 | COC(=O)/C=C/CC[C@H](NC(=O)c1c[nH]cn1)C(=O)Nc1cccn(CC(=O)NC2C3CC4CC(C3)CC2C4)c1=O (stereo partly drawn) [III-28, (S,E)-methyl 6-(1H-imidazole-4-carboxamido)-7-(1-(2-(2-adamantylamino)-2-oxoethyl)-2-oxo-1,2-dihydropyridin-3-ylamino)-7-oxohept-2-enoate]
1 to 3 | 1 to 10 | < 25 | COC(=O)/C=C/CC[C@H](NC(=O)c1cnnn1C)C(=O)Nc1cccn(CC(=O)NC2C3CC4CC(C3)CC2C4)c1=O (stereo partly drawn) [III-22, (S,E)-methyl 7-(1-(2-(2-adamantylamino)-2-oxoethyl)-2-oxo-1,2-dihydropyridin-3-ylamino)-6-(1-methyl-1H-1,2,3-triazole-5-carboxamido)-7-oxohept-2-enoate]
3 to 5 | 1 to 10 | 25 to 250 | COC(=O)/C=C/CC[C@H](NC(=O)c1csc2ccccc12)C(=O)Nc1cccn(CC(=O)NC2C3CC4CC(C3)CC2C4)c1=O (stereo partly drawn) [III-107, (S,E)-methyl 6-(benzo[b]thiophene-3-carboxamido)-7-(1-(2-(2-adamantylamino)-2-oxoethyl)-2-oxo-1,2-dihydropyridin-3-ylamino)-7-oxohept-2-enoate]
1 to 3 | < 1 | 250 to 1500 | COC(=O)/C=C/CC[C@H](NC(=O)c1snnc1CO)C(=O)Nc1cccn(CC(=O)NC2C3CC4CC(C3)CC2C4)c1=O (stereo partly drawn) [III-175, (S,E)-methyl 6-(4-(hydroxymethyl)-1,2,3-thiadiazole-5-carboxamido)-7-(1-(2-(2-adamantylamino)-2-oxoethyl)-2-oxo-1,2-dihydropyridin-3-ylamino)-7-oxohept-2-enoate]
